Results published in patent US8802353B2, “Compound for resist and radiation-sensitive composition specification” (Mitsubishi Gas Chemical Company, Inc., priority 2004, dated 2014).

How the values were obtained:
Format in all cases: physicochemical
[1] = Ultraviolet-visible absorption spectra, absorptivity coefficient at 248 nm; conditions: 0.01 g/L methanol solution
Description: From the ultraviolet-visible absorption spectra of a 0.01 g/L methanol solution of each of Compounds 103, 105 and 108 measured by an autographic spectrophotometer “UV-3100PC” manufactured by Shimadzu Corporation, the absorptivity coefficient at 248 nm of each compound was determined. The absorptivity coefficient was 43.4 L/(cm·g) for Compound 103, 47.4 L/(cm·g) for Compound 105, and 16.9 L/(cm·g) for Compound 108. The absorptivity coefficient is sufficiently larger than 15 L/(cm·g) in any of the compounds, to indicate that the compounds, particularly Compounds 103 and 105, are useful as the raw material of the compound B for forming shade masks. The compounds B produced from these compounds and the radiation-sensitive composition containing such compounds B also have a high absorptivity and are useful for forming shade masks.

[2] = Glass transition temperature, crystallization temperature and quantity of crystallization heat (DSC); conditions: for Glass transition temperature: 20° C./min, nitrogen gas flow; for Glass transition temperature-Crystallization temperature: rating of the difference
Description: A sample (about 10 mg) placed in a non-sealed aluminum container was heated to a temperature higher than the melting point at a temperature rising rate of 20° C./min in a nitrogen gas flow (50 ml/min). After being rapidly cooled, the sample was again heated to a temperature higher than the melting point at a temperature rising rate of 20° C./min in a nitrogen gas flow (30 ml/min). After being rapidly cooled, the sample was again heated to 400° C. at a temperature rising rate of 20° C./min in a nitrogen gas flow (30 ml/min), to conduct a differential scanning calorimetric analysis using DSC/TA-50WS manufactured by Shimadzu Corporation. The middle point of the region at which the base line turned discontinuous (the point at which the specific heat reduced to half) was taken as the glass transition temperature (Tg) and the temperature of the exothermic peak after the discontinuous region was taken as the crystallization temperature. The quantity of crystallization heat was determined by the area of the region which was surrounded by the exothermic peak and the base line. The sample was rated A when meeting Tg≧130° C., and rated C when meeting Tg≦130° C. Also, the sample was rated A when meeting (glass transition temperature)−(crystallization temperature)≧70° C., and rated C when meeting (glass transition temperature)-(crystallization temperature)<70° C.

[3] = Film-forming property (spin-coated film on silicon wafer); set-up: key: rated C when the film was clouded or its surface was roughened; rated B when the film was partly clouded or roughened; rated A when the film had a good surface flatness without causing clouding; conditions: 3% by weight solution spin-coated, 110° C. 3 min
Description: A 3% by weight solution of the compound B or a mixture (compound B and polyphenol A) in PGME/PE (1/2 by weight) or acetone when not dissolved in PGME/PE was spin-coated on a silicon wafer which had been surface-treated with a silane coupling agent, to form a resist film with a thickness of about 0.05 μm.

[4] = Solubility in safety solvent; conditions: 23° C.; PGMEA, PGME, ethyl lactate, butyl acetate, methyl 3-methoxypropionate, ethyl propionate
Description: The solubility of the compound B was tested at 23° C. using propylene glycol monomethyl ether acetate, propylene glycol monomethyl ether, ethyl lactate, butyl acetate, methyl 3-methoxypropionate and ethyl propionate. The sample was rated A when dissolved in any one of the above solvents in a concentration of 5 wt % or more, rated B when dissolved in a concentration of 0.1 to 5 wt %, and rated C when dissolved only in a concentration of less than 0.1 wt %.

[5] = Adhesion to silicon substrate; set-up: key: rated A when the film was not peeled from the silicon wafer; rated C when peeled off; conditions: silicon wafer surface-treated with silane coupling agent
Description: The resist film formed in (2-2) was tested for its adhesion to the silicon wafer which was surface-treated with a silane coupling agent. The sample was rated A when the film was not peeled from the silicon wafer, and rated C when peeled off.

| SMILES | absorptivity coefficient at 248 nm [1] [L/cm/g] | Glass transition temperature Rating ([2]; DSC) | Glass transition temperature ([2]; DSC) [°C] | Crystallization temperature ([2]; DSC, exothermic peak) [°C] | Glass transition temperature-Crystallization temperature [2] | film-forming property [3] | Solubility to safety solvent [4] | Adhesion to silicon substrate [5] |
| --- | --- | --- | --- | --- | --- | --- | --- | --- |
| Cc1cc(O)c(C(C)C)cc1C(c1ccc2cc(C(c3cc(C(C)C)c(O)cc3C)c3cc(C(C)C)c(O)cc3C)ccc2c1)c1cc(C(C)C)c(O)cc1C [Compound 103] | 43.4 | C (rated C when meeting Tg≦130° C.) | 116 | 190 | A (rated A when meeting (glass transition temperature)−(crystallization temperature)≧70° C.) | – | – | – |
| Cc1cc(C(c2ccc3ccc(C(c4cc(C)c(O)c(C)c4C)c4cc(C)c(O)c(C)c4C)cc3c2)c2cc(C)c(O)c(C)c2C)c(C)c(C)c1O [Compound 105] | 47.4 | A (rated A when meeting Tg≧130° C.) | 156 | – | A (rated A when meeting (glass transition temperature)−(crystallization temperature)≧70° C.) | – | – | – |
| Cc1cc(C(c2cc(C(c3cc(C)c(O)c(C)c3C)c3cc(C)c(O)c(C)c3C)cc(C(c3cc(C)c(O)c(C)c3C)c3cc(C)c(O)c(C)c3C)c2)c2cc(C)c(O)c(C)c2C)c(C)c(C)c1O [Compound 108] | 16.9 | A (rated A when meeting Tg≧130° C.) | 125 | – | A (rated A when meeting (glass transition temperature)−(crystallization temperature)≧70° C.) | – | – | – |
| CCOC(C)Oc1ccc(C(C)(c2ccc(O)c(C)c2)c2ccc3ccccc3c2)cc1C (stereo not shown) [Compound 207, reference compound] | – | – | – | – | – | A | A (rated A when dissolved in any one of the above solvents in a concentration of 5 wt % or more) | A |
| Cc1cc(C(C)(c2ccc(OC(C)OC3CCCCC3)c(C)c2)c2ccc3ccccc3c2)ccc1O (stereo not shown) [Compound 208, reference compound] | – | – | – | – | – | A | A (rated A when dissolved in any one of the above solvents in a concentration of 5 wt % or more) | A |
